From US9808466B2, “Macrocyclic compounds as protein kinase inhibitors” (Fundación Centro Nacional de Investigaciones Oncologicas …, priority 2011, dated 2017) come the findings set out here.

Each structure is given as a SMILES string. Read-outs that look alike come from different tables or passages of the source.

The target of one data set is T1, PIM-1 (Homo sapiens, UniProt P11309).
T1 construct: histidine tag (C); made in house
The data set can be described thus: PIM-1 biochemical assay (ADP Hunter). The following applies: PIM1. Summed up: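 Recombinant His-tagged human PIM-1 (50 pg/μl) with PIMtide peptide (60 μM) and 100 μM ATP in HEPES pH 7.4 buffer with MgCl2, 60 min at 30° C, DMSO below 2%. ADP formed detected by coupled ADP Hunter reaction as resorufin fluorescence (Ex 544/Em 580 nm).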

A further data set has as its target T2, mTOR (Homo sapiens, UniProt P42345).
T2 construct: purchased Invitrogen PV4754
Description: mTOR assay (LanthaScreen kinase activity assay). Type of data set: biochemical. In general terms: In TR-FRET formats the signal depends on donor and acceptor labels being close together.

The target in a further data set is T3, PI3K (p110α/p85α) (Homo sapiens, UniProt P42336).
T3 construct: purchased Carna Biosciences 07CBS-0402A
T3 sequence (P42336 whole entry): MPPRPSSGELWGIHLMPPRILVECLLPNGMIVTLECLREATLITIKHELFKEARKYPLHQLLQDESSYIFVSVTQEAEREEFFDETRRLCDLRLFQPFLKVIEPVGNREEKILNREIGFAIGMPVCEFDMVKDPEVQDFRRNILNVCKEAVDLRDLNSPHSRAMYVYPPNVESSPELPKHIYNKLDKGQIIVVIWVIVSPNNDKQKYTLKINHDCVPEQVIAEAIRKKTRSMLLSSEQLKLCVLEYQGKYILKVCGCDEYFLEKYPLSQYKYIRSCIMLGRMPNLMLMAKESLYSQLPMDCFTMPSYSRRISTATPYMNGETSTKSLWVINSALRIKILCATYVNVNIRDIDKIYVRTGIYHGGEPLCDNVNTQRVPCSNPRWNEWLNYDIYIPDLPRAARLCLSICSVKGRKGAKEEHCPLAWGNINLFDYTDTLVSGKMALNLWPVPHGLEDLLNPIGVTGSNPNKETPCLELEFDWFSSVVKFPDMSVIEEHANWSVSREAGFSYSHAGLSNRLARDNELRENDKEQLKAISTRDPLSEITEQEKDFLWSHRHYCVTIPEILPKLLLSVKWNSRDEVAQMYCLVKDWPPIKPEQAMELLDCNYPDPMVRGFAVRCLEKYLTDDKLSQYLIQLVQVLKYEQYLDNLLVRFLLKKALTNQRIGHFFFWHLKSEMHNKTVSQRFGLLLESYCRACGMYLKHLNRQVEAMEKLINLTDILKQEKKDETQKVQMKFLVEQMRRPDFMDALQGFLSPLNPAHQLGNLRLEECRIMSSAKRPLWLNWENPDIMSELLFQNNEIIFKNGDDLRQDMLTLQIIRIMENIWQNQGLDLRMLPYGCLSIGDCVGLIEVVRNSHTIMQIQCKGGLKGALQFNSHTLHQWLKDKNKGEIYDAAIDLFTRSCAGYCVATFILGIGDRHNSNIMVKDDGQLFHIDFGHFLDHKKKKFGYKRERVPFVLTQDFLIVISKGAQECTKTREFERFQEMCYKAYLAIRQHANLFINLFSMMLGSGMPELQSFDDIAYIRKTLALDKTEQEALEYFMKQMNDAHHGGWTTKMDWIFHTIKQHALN
T3 sequence (P27986 whole entry partner): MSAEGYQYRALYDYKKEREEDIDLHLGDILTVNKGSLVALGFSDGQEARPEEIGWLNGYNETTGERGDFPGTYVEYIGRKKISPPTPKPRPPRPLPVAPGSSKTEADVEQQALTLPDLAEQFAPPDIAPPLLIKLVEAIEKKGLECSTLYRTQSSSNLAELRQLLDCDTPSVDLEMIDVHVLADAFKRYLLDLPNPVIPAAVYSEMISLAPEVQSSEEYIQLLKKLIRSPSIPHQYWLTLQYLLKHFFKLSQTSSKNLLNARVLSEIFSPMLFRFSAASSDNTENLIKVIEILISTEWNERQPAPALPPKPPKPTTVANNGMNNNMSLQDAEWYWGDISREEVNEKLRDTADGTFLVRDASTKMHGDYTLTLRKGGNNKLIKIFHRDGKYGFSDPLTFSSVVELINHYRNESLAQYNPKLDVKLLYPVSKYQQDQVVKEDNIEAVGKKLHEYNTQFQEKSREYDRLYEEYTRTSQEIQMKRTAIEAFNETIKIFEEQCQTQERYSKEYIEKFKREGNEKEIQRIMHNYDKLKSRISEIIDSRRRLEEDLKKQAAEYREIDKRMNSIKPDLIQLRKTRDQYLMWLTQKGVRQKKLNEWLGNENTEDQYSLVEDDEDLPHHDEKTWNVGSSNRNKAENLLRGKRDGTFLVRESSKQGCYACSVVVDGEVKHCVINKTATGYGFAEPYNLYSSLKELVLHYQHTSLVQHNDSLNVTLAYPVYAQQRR
Description: PI3K activity assay (ADP Hunter Plus). Type of data set: biochemical. Summed up: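 ADP accumulation measured by coupled fluorescence (ex 544/em 580 nm) after a 1 h kinase reaction at 25 °C, then 30 min at 37 °C with detection reagents. Activity normalised to no-compound control (100%) and IC50 from sigmoid dose-response fit.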

The nature of data set [1]: Pharmacokinetic in BALB-c female mice, i.v. and oral. Type of data set: in vivo. The following applies: for AUC(0-inf) / half-life / clearance / MRT / Vd / bioavailability / Cmax: mouse; for half-life: read-out: T½ last (plasmatic half life) (converted); for clearance: read-out: Cl (plasmatic clearance) (converted); for MRT: read-out: MRT (Mean residence time); for Vd: read-out: Vd (volume of distribution); for bioavailability: read-out: F % (bioavailability); for Cmax: read-out: C max (maximum plasma concentration after oral administration). On the procedure: Experiments were done using BALB-c female mice, 10 weeks old. Compounds were dissolved in selected vehicles at a concentration calculated in order to administer the dose selected in 0.1 mL. Animals were administered by i.v and oral route (by gavage), and sacrificed at different time points (n=3 at each time point). Time points were 0.08, 0.25, 0.5, 1, 4 and 8 h for the i.v branch, and 0.08, 0.16, 0.25, 0.5, 1, 4, 8 and 24 h for oral branch. Blood was collected and processed for plasma which was analyzed and quantified by means of tandem mass spectrometry coupled with liquid chromatography. Pharmacokinetic parameters were estimated by fitting the experimental data to a compartmental model using Winnonlin software for pharmacokinetic analysis.

Where [2] appears, read: read-out: PIM-1 activity, IC50 (semi-quantitative class).
The mark [3] stands for this setting: read-out: mTOR activity, IC50 (semi-quantitative class).
Where [4] appears, read: read-out: PI3K alpha activity, IC50 (semi-quantitative class).
Setting [5] is: read-out: PI3K alpha actual IC50 (in parentheses).
Setting [6] is: iv, I.V, dose 5.00 mg/Kg, plasma.
The mark [7] stands for this setting: plasma, iv, I.V, dose 5.00 mg/Kg.
Where [8] appears, read: plasma, po, P.O dose 10.00 mg/Kg vs I.V 5.00 mg/Kg.
The mark [9] stands for this setting: po, P.O, dose 10.00 mg/Kg, plasma.
Setting [10] is: read-out: mTOR actual IC50 (in parentheses).
[11] abbreviates: iv, I.V, dose 1.00 mg/Kg, plasma.
The mark [12] stands for this setting: plasma, iv, I.V, dose 1.00 mg/Kg.
Where [13] appears, read: po, P.O, dose 3.00 mg/Kg, plasma.

T1 sequence (P11309 whole entry): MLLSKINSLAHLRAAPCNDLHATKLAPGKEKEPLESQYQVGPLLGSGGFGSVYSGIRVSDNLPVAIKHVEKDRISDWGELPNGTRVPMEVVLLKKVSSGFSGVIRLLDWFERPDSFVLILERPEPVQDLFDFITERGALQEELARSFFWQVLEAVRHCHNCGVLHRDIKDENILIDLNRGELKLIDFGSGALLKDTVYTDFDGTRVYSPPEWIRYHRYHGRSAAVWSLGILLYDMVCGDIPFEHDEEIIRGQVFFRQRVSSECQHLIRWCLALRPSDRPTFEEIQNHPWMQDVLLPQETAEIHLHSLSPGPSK
T2 sequence (P42345 1360-2549 limits assumed): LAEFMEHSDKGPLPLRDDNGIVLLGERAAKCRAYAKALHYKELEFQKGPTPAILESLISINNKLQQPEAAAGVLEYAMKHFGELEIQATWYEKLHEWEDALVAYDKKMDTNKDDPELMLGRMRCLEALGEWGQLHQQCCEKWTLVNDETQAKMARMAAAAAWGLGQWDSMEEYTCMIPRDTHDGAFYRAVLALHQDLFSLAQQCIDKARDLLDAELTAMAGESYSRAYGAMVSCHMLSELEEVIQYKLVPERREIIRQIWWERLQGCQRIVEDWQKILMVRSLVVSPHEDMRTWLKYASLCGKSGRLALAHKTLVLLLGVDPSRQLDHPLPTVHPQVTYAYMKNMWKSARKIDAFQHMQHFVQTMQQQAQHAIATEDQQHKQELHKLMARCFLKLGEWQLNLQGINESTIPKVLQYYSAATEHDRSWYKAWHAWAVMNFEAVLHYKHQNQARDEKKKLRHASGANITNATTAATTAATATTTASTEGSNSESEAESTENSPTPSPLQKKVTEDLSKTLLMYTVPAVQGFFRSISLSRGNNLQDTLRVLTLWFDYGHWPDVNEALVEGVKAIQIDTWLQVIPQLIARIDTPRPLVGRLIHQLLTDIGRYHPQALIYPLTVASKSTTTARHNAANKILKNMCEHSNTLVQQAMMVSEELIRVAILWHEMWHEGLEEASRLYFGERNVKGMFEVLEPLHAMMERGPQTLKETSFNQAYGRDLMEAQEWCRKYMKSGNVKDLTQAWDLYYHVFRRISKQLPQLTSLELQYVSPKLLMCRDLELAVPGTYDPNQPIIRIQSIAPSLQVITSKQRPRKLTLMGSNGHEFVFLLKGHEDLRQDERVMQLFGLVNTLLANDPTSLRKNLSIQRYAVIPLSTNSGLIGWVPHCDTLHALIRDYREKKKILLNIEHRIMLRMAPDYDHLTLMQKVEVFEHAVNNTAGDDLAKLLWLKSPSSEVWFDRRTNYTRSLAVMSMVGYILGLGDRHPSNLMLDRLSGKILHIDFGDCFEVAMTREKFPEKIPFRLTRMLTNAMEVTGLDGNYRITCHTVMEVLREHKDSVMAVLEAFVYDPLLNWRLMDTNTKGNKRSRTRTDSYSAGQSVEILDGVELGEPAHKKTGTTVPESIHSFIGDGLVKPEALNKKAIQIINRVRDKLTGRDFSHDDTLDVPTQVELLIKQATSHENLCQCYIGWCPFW

Regarding `COc1ncc2cc1NS(=O)(=O)c1cccc(c1)C(=O)NCc1cccc(c1)-c1ccnc3ccc-2cc13` [compound 3], the IC50 (as a rule, the concentration that inhibits the measured activity by half) at PIM-1 (setting [2]) is over 1000 nM; at mTOR (setting [3]), 100 to 1000 nM; at PI3K (p110α/p85α) (setting [4]), under 100 nM; at PI3K (p110α/p85α) (setting [5]), 1.6 nM. The AUC(0-inf) (as a rule, the area under the concentration-time curve extrapolated to infinity) in data set [1] (setting [6]) was determined as 23700 ng·h/mL; in data set [1] (setting [9]), 48100 ng·h/mL. For the same molecule, the half-life (in general, the time needed for the level to fall by half in the phase considered) in data set [1] (setting [6]) is 1.41 h. For the same molecule, in data set [1] (setting [7]), the clearance is 6 mL/min/kg. Besides, the MRT (in general, the average time that molecules of a dose stay in the body) in data set [1] (setting [7]) amounted to 1.27 h. The Vd in data set [1] (setting [7]) is 0.46 L/kg. Also, the bioavailability in data set [1] (setting [8]) worked out at 101%. In data set [1] (setting [9]), the Cmax turned out to be 12400 ng/mL.

As for `COc1ncc2cc1NS(=O)(=O)c1cc(c(F)cc1F)C(=O)NCc1cncc(c1)-c1ccnc3ccc-2cc13` [compound 10], the IC50 on PIM-1 (setting [2]) was over 1000 nM; at mTOR (setting [3]), under 100 nM; on mTOR (setting [10]), 22 nM; at PI3K (p110α/p85α) (setting [4]) it was under 100 nM; at PI3K (p110α/p85α) (setting [5]) it was 0.03 nM. The “Cl (plasmatic clearance)” value in data set [1] (I.V, dose 5.00 mg/Kg) amounted to 8.83 mL/min/kg. Further, the AUC inf in data set [1] (I.V, dose 5.00 mg/Kg, plasma) worked out at 9467.60 ng·h/mL. Besides, the T½ last (plasmatic half life) in data set [1] (I.V, dose 5.00 mg/Kg, plasma) turned out to be 0.57 h. The MRT in data set [1] (setting [7]) amounted to 0.53 h. In addition, the Vd in data set [1] (setting [7]) is 0.28 L/kg. In addition, the bioavailability in data set [1] (setting [8]) worked out at 39.9%. The molecule also showed an AUC(0-inf) in data set [1] (setting [9]) of 7560 ng·h/mL. In data set [1] (setting [9]), the Cmax was found to be 3390 ng/mL.

Turning to `COc1ncc2cc1NS(=O)(=O)c1cccc(c1)C(=O)NCc1cccc(c1)-c1cnn3ccc-2nc13` [compound 16], the half-maximal inhibitory concentration (IC50) on PIM-1 (setting [2]) was over 1000 nM; at mTOR (setting [3]) it was under 100 nM; at mTOR (setting [10]), 4 nM; on PI3K (p110α/p85α) (setting [4]), under 100 nM; at PI3K (p110α/p85α) (setting [5]) it was 0.9 nM. The AUC(0-inf) was found to be 23600 ng·h/mL in data set [1] (setting [6]) and 29200 ng·h/mL in data set [1] (setting [9]). In data set [1] (setting [6]), the half-life is 2.23 h. Also, the clearance in data set [1] (setting [7]) was 4.5 mL/min/kg. Moreover, the MRT in data set [1] (setting [7]) is 3.33 h. For the same molecule, the Vd in data set [1] (setting [7]) was 0.99 L/kg. The bioavailability in data set [1] (setting [8]) stood at 123%. Besides, the Cmax in data set [1] (setting [9]) was found to be 4820 ng/mL.

Turning to `COc1ncc2cc1NS(=O)(=O)c1cccc(c1)C(=O)NCc1cccc(c1)-c1ncnc3ccc-2cc13` [compound 22], the IC50 on PIM-1 (setting [2]) is over 1000 nM. Also, at PI3K (p110α/p85α) (setting [4]), the IC50 was under 100 nM. On PI3K (p110α/p85α) (setting [5]), the IC50 is 0.1 nM. Moreover, in data set [1] (setting [6]), the AUC(0-inf) was determined as 66900 ng·h/mL and the half-life is 3.42 h. Moreover, in data set [1] (setting [7]), the clearance was 1.17 mL/min/kg, the MRT was 4.94 h and the Vd came out at 0.37 L/kg. Further, the bioavailability in data set [1] (setting [8]) stood at 33.5%. Moreover, in data set [1] (setting [9]), the AUC(0-inf) was 44800 ng·h/mL and the Cmax is 15000 ng/mL.

Take `COc1ncc2cc1NS(=O)(=O)c1cccc(c1)C(=O)NCc1cncc(c1)-c1ccnc3ccc-2nc13` [compound 31]: the IC50 was over 1000 nM at PIM-1 (setting [2]); under 100 nM on mTOR (setting [3]); 23 nM at mTOR (setting [10]); under 100 nM at PI3K (p110α/p85α) (setting [4]); 2 nM at PI3K (p110α/p85α) (setting [5]). Further, the AUC(0-inf) was found to be 8930 ng·h/mL in data set [1] (setting [6]) and 6080 ng·h/mL in data set [1] (setting [9]). For the same molecule, the half-life in data set [1] (setting [6]) was 0.39 h. In addition, the clearance in data set [1] (setting [7]) was 11.5 mL/min/kg. In addition, the MRT in data set [1] (setting [7]) came out at 0.81 h. Further, in data set [1] (setting [7]), the Vd is 0.56 L/kg. Also, in data set [1] (setting [8]), the bioavailability came out at 34%. The Cmax in data set [1] (setting [9]) was 1640 ng/mL.

With `COc1ncc2cc1NS(=O)(=O)c1cccc(c1)C(=O)NCCn1cc(cn1)-c1ncnc3ccc-2cc13` [compound 33], the IC50 on PIM-1 (setting [2]) is over 1000 nM; at mTOR (setting [3]) it was under 100 nM; at mTOR (setting [10]), 4.8 nM; on PI3K (p110α/p85α) (setting [4]) it was under 100 nM; on PI3K (p110α/p85α) (setting [5]), 1.3 nM. In addition, the AUC(0-inf) was found to be 9160 ng·h/mL in data set [1] (setting [6]) and 8810 ng·h/mL in data set [1] (setting [9]). Moreover, the half-life in data set [1] (setting [6]) was 2.91 h. The clearance in data set [1] (setting [7]) is 10 mL/min/kg. Also, in data set [1] (setting [7]), the MRT turned out to be 1.87 h. The Vd in data set [1] (setting [7]) was 1.12 L/kg. The bioavailability in data set [1] (setting [8]) was 48.1%. Further, the Cmax in data set [1] (setting [9]) was determined as 1270 ng/mL.

For `COc1ncc2cc1NS(=O)(=O)c1cccc(c1)C(=O)N1CCc3ccc(cc3C1)-c1ccnc3ccc-2cc13` [compound 39], the IC50 was over 1000 nM on PIM-1 (setting [2]); under 100 nM on mTOR (setting [3]); 0.3 nM at mTOR (setting [10]); under 100 nM at PI3K (p110α/p85α) (setting [4]); 0.05 nM on PI3K (p110α/p85α) (setting [5]). Further, the AUC(0-inf) is 4460 ng·h/mL in data set [1] (setting [11]) and 3580 ng·h/mL in data set [1] (setting [13]). The half-life in data set [1] (setting [11]) is 1.66 h. Further, in data set [1] (setting [12]), the clearance is 4.17 mL/min/kg. Besides, the MRT in data set [1] (setting [12]) was determined as 2.39 h. In addition, in data set [1] (setting [12]), the Vd was determined as 0.59 L/kg. For the same molecule, in data set [1] (plasma, po, P.O dose 3.00 mg/Kg vs I.V 1.00 mg/Kg), the bioavailability amounted to 26.8%. Besides, the Cmax in data set [1] (setting [13]) came to 962 ng/mL.

Turning to `COc1ncc2cc1NS(=O)(=O)c1cccc(c1)C(=O)NCC1=CC=C(S1)c1ncnc3c1SC2=C3C` [compound 68], the IC50 on PIM-1 (setting [2]) is under 100 nM; on PIM-1 (read-out: PIM-1 actual IC50 (in parentheses)), 28 nM; at mTOR (setting [3]), under 100 nM; at mTOR (setting [10]) it was 90 nM; at PI3K (p110α/p85α) (setting [4]), under 100 nM; at PI3K (p110α/p85α) (setting [5]) it was 2.5 nM. Besides, the values for the AUC(0-inf) in data set [1] (setting [6]) and in data set [1] (setting [9]) were 16600 ng·h/mL and 57300 ng·h/mL, respectively. Moreover, in data set [1] (setting [6]), the half-life was 3.15 h. The clearance in data set [1] (setting [7]) was 0.667 mL/min/kg. In addition, the MRT in data set [1] (setting [7]) was 10.9 h. In data set [1] (setting [7]), the Vd came out at 0.49 L/kg. The bioavailability in data set [1] (setting [8]) stood at 34.5%. Also, the Cmax in data set [1] (setting [9]) came to 2930 ng/mL.
